Measurements published in patent publication US10620222B2, “Electrified compositions for determining the risk of developing adolescent idiopathic scoliosis through the use of GI protein receptor” (CHU Sainte-Justine, priority 2008, dated 2020).
Where “and” joins values, the source holds several entries; their conditions need not be identical. Identical values can stand only once.

System: receptors coupled to Gi proteins expressed on osteoblasts
Assay: Cellular Dielectric Spectroscopy (CDS, CELLKEY) response to Gi-coupled receptor ligands in osteoblasts from control and AIS subjects
Format: cell-based, human
Parameters: % of control / % of control signal, Group 1, min diff. / % of control signal, Group 2, min diff. / % of control signal, Group 3, min diff.: concentration or dose not given beside the values; dZiec value / Absolute dZiec, control value of max diff. (maximal control value): unit not given here
Details: for dZiec value / Absolute dZiec, control value of max diff. (maximal control value) / Absolute dZiec, control value of min diff. (minimal control value) / Absolute dZiec, Group 1, max diff. (group value) / Absolute dZiec, Group 1, min diff. (group value) / Absolute dZiec, Group 2, max diff. (group value) / Absolute dZiec, Group 2, min diff. (group value) / Absolute dZiec, Group 3, max diff. (group value) / Absolute dZiec, Group 3, min diff. (group value): 300 μM ligand; for dZiec value: n1, n2 of Exper. 1-3; for Absolute dZiec, control value of max diff. (maximal control value) / Absolute dZiec, control value of min diff. (minimal control value): osteoblasts of control subjects; for Absolute dZiec, control value of max diff. (maximal control value) / Absolute dZiec, control value of min diff. (minimal control value) / Absolute dZiec, Group 1, max diff. (group value) / Absolute dZiec, Group 1, min diff. (group value) / Absolute dZiec, Group 2, max diff. (group value) / Absolute dZiec, Group 2, min diff. (group value) / Absolute dZiec, Group 3, max diff. (group value) / Absolute dZiec, Group 3, min diff. (group value): from FIGS. 11A-11F; for Absolute dZiec, Group 1, max diff. (group value) / Absolute dZiec, Group 1, min diff. (group value) / % of control signal, Group 1, max diff. / % of control signal, Group 1, min diff. / Absolute dZiec, Group 2, max diff. (group value) / Absolute dZiec, Group 2, min diff. (group value) / % of control signal, Group 2, max diff. / % of control signal, Group 2, min diff. / Absolute dZiec, Group 3, max diff. (group value) / Absolute dZiec, Group 3, min diff. (group value) / % of control signal, Group 3, max diff. / % of control signal, Group 3, min diff.: osteoblasts; for Absolute dZiec, Group 1, max diff. (group value): AIS Group 1 value of max diff.; for Absolute dZiec, Group 1, min diff. (group value): AIS Group 1 value of min diff.; for % of control signal, Group 1, max diff.: AIS Group 1 vs maximal control value; for % of control signal, Group 1, min diff.: AIS Group 1 vs minimal control value; for Absolute dZiec, Group 2, max diff. (group value): AIS Group 2 value of max diff.; for Absolute dZiec, Group 2, min diff. (group value): AIS Group 2 value of min diff.; for % of control signal, Group 2, max diff.: AIS Group 2 vs maximal control value; for % of control signal, Group 2, min diff.: AIS Group 2 vs minimal control value; for Absolute dZiec, Group 3, max diff. (group value): AIS Group 3 value of max diff.; for Absolute dZiec, Group 3, min diff. (group value): AIS Group 3 value of min diff.; for % of control signal, Group 3, max diff.: AIS Group 3 vs maximal control value; for % of control signal, Group 3, min diff.: AIS Group 3 vs minimal control value
Source text: Bone specimens were obtained intraoperatively from vertebras (varying from T3 to L4 according to the surgical procedure performed), while with trauma cases used as non-scoliotic controls bone specimens were obtained from other anatomical sites (tibia or femur, and in one case from an iliac crest biopsy). Osteoblasts and myoblasts isolated as previously described (Moreau A, Wang D S, Forget S et al. Melatonin Signaling Dysfunction in Adolescent Idiopathic Scoliosis. Spine 2004; 29:1772-81; Azeddine et al., 2007 Molecular determinants of melatonin signaling dysfunction in adolescent idiopathic scoliosis. Clin Orthop Relat Res. 2007, 462:45-52), were cultured at 37° C./5% CO2 in MEM supplemented with 10% fetal bovine serum (FBS) and 100 μg/mL streptomycin. Prior to the experiment, cells were seeded into the CELLKEY™ label-free cellular analysis system standard 96-well plates at a density of 5×10^4/well and grown for 24 h and incubated in standard conditions (37° C./5% CO2). In some plates, Pertussis toxin (100 ng/mL, Sigma, Oakville, ON, Canada) treatment was performed 16 h before the CDS assay. Following overnight incubation, plates were placed onto the CELLKEY™ label-free cellular analysis system and growth medium was exchanged to assay buffer (Hanks, Balanced Salt Solution containing 20 mM HEPES and 0.1% BSA) before starting the experiment. Cells were then allowed to equilibrate at room temperature for 30 min. Pre-addition measurements were made for 5 min to obtain a baseline reading. […] The quick update rate (2 s.) of the CELLKEY™ label-free cellular analysis system allows detection of these immediate changes in impedance. Impedance measurements were collected for 10 min to 15 min at 28° C. after ligand addition to monitor cellular responses to ligand interaction and to generate CELLKEY™ label-free cellular analysis system response profiles that are characteristic of the signaling mechanisms used.
The response induced by the various ligands to their receptors was measured by cellular dielectric spectroscopy (CDS) using the CELLKEY™ label-free cellular analysis technology. (MDS Sciex, San Francisco, Calif., USA). The CELLKEY™ label-free cellular analysis system integrates a proprietary impedance measurement system, custom 96-well microliter plate, onboard 96-well fluidics, and environment control and custom acquisition and analysis software in a full solution package (MDS Sciex) that is compatible with commercially available robotic platforms. Small voltage at 24 frequencies, from 1 KHz to 10 MHz, is applied to a monolayer of cells settled in a 96-well microplate containing electrodes at the bottom, and the resultant current is measured at an update rate of 2 s. […] Onboard fluid additions and exchanges are handled by 96-well head fluid delivery device with a range of 5-500 μL. In addition to the cell plate location, the CELLKEY™ label-free cellular analysis system includes two additional stations for 96- or 384-well compound plates. All aspects of assay set up, execution, and data acquisition and analysis are controlled by CELLKEY™ label-free cellular analysis software.
The minimal (min) and maximal (max) values represent the mean of three independent measurements performed in duplicate (six values in total) for a given patient/control subject. […] Duplicates (n1 and n2) of three independent experiments are presented.

O=C(O)/C=C\C(=O)O.c1ccc(N2CCN(CCCOc3ccc4c(c3)OCO4)CC2)cc1 [BP554, 1-[3-(3,4-Methylenedioxyphenoxy)propyl]-4-phenyl-piperazine maleate]
% of control (osteoblasts of AIS#1020 (Group 3) relative to CTR#60, maleate): 44.5% and 42.3% and 48.5% and 45.1% and 43.7% and 46.6% | dZiec value (osteoblasts of AIS#1020 (Group 3), maleate): 62.57 and 64.57 and 78.63 and 76.63 and 66.6 and 74.6 | % of control (osteoblasts of AIS#1198 (Group 3 in Table II) relative to CTR#69, maleate): 41.1% and 45.0% and 40.6% and 43.5% | dZiec value (osteoblasts of AIS#1198 (Group 3 in Table II), maleate): 59.83 and 64.83 and 74.63 and 70.63 and 63.73 and 71.73 | % of control (osteoblasts of AIS#1385 (Group 2) relative to CTR#69, maleate): 50.4% and 43.4% and 51.9% and 49.0% and 46.4% and 44.8% | dZiec value (osteoblasts of AIS#1385 (Group 2), maleate): 73.41 and 68.41 and 86.15 and 85.15 and 72.78 and 73.78 | % of control (osteoblasts of AIS#1468 (Group 3) relative to CTR#61, maleate): 63.8% and 66.8% and 67.5% and 69.1% and 66.0% and 67.8% | dZiec value (osteoblasts of AIS#1468 (Group 3), maleate): 84.51 and 96.51 and 104.4 and 112.4 and 95.45 and 103.45 | % of control (osteoblasts of AIS#1474 (Group 1) relative to CTR#60, maleate): 28.4% and 27.5% and 31.8% and 29.7% and 28.7% and 29.1% | dZiec value (osteoblasts of AIS#1474 (Group 1), maleate): 39.94 and 41.94 and 51.45 and 50.45 and 43.7 and 46.7 | % of control (osteoblasts of AIS#1488 (Group 1) relative to CTR#69, maleate): 30.2% and 29.2% and 32.7% and 30.0% and 28.8% and 32.3% | dZiec value (osteoblasts of AIS#1488 (Group 1), maleate): 44.06 and 46.06 and 54.24 and 52.24 and 45.15 and 53.15 | % of control (osteoblasts of AIS#1513 (Group 3) relative to CTR#61, maleate): 68.8% and 71.4% and 73.3% and 74.6% and 71.5% and 72.9% | dZiec value (osteoblasts of AIS#1513 (Group 3), maleate): 91.15 and 103.15 and 113.38 and 121.38 and 103.27 and 111.27 | % of control (osteoblasts of AIS#1549 (Group 1) relative to CTR#61, maleate): 19.7% | % of control (osteoblasts of AIS#1550 (Group 2) relative to CTR#60, maleate): 53.1% and 56.8% and 56.5% and 58.5% and 55.2% and 57.4% | dZiec value (osteoblasts of AIS#1550 (Group 2), maleate): 74.64 and 86.64 and 91.46 and 99.46 and 84.05 and 92.05 | dZiec value (osteoblasts of control CTR#60, maleate): 140.49/— and 152.49/— and 162/— and 170/— and 152.25/— and 160.25/— | dZiec value (osteoblasts of control CTR#61, maleate): 132.45/— and 144.45/— and 154.6/— and 162.6/— and 144.53/— and 152.53/— | dZiec value (osteoblasts of control CTR#69, maleate): 145.69/— and 157.69/— and 165.87/— and 173.87/— and 156.78/— and 164.78/— | Absolute dZiec, control value of max diff. (maximal control value): 166 | Absolute dZiec, control value of min diff. (minimal control value): 128 | Absolute dZiec, Group 1, max diff. (group value): 32 | Absolute dZiec, Group 1, min diff. (group value): 49 | % of control signal, Group 1, max diff.: 19% | % of control signal, Group 1, min diff.: 38% | Absolute dZiec, Group 2, max diff. (group value): 67 | Absolute dZiec, Group 2, min diff. (group value): 88 | % of control signal, Group 2, max diff.: 40% | % of control signal, Group 2, min diff.: 69% | Absolute dZiec, Group 3, max diff. (group value): 99 | Absolute dZiec, Group 3, min diff. (group value): 107 | % of control signal, Group 3, max diff.: 60% | % of control signal, Group 3, min diff.: 84%

O=C(NC1CCCCC1)c1cn(CCN2CCOCC2)c2cc(Cl)ccc2c1=O [CB65, N-Cyclohexyl-7-chloro-1-[2-(4-morpholinyl)ethyl]quinolin-4(1H)-one-3-carboxamide]
% of control (osteoblasts of AIS#1020 (Group 3) relative to CTR#60): 43.1% and 47.5% and 45.6% and 43.5% and 46.2% | dZiec value (osteoblasts of AIS#1020 (Group 3)): 61.81 and 73.81 and 74.95 and 82.95 and 69.38 and 77.38 | % of control (osteoblasts of AIS#1198 (Group 3 in Table II) relative to CTR#69): 51.5% and 55.2% and 57.8% and 59.7% and 55.1% and 57.3% | dZiec value (osteoblasts of AIS#1198 (Group 3 in Table II)): 72.90 and 84.90 and 94.57 and 102.57 and 84.73 and 92.73 | % of control (osteoblasts of AIS#1385 (Group 2) relative to CTR#69): 46.7% and 50.9% and 51.8% and 54.1% and 49.8% and 52.3% | dZiec value (osteoblasts of AIS#1385 (Group 2)): 66.15 and 78.15 and 84.86 and 92.86 and 76.50 and 84.50 | % of control (osteoblasts of AIS#1468 (Group 3) relative to CTR#61): 57.0% and 60.3% and 64.0% and 65.6% and 61.0% and 62.9% | dZiec value (osteoblasts of AIS#1468 (Group 3)): 82.16 and 94.16 and 107.91 and 115.91 and 96.04 and 104.04 | % of control (osteoblasts of AIS#1474 (Group 1) relative to CTR#60): 25.3% and 24.7% and 26.9% and 24.6% and 23.5% and 27.2% | dZiec value (osteoblasts of AIS#1474 (Group 1)): 36.30 and 38.30 and 46.79 and 44.79 and 37.55 and 45.55 | % of control (osteoblasts of AIS#1488 (Group 1) relative to CTR#69): 29.2% and 28.2% and 33.2% and 30.5% and 28.5% and 32.1% | dZiec value (osteoblasts of AIS#1488 (Group 1)): 41.30 and 43.30 and 54.43 and 52.43 and 43.87 and 51.87 | % of control (osteoblasts of AIS#1513 (Group 3) relative to CTR#61): 74.8% and 76.7% and 76.6% and 77.6% and 75.9% and 77.1% | dZiec value (osteoblasts of AIS#1513 (Group 3)): 107.73 and 119.73 and 129.10 and 137.10 and 119.41 and 127.41 | % of control (osteoblasts of AIS#1549 (Group 1) relative to CTR#61): 25.3% and 18.2% and 19.1% and 22.8% and 19.3% and 23.2% | dZiec value (osteoblasts of AIS#1549 (Group 1)): 36.48 and 28.48 and 32.23 and 40.23 and 30.36 and 38.36 | % of control (osteoblasts of AIS#1550 (Group 2) relative to CTR#60): 38.5% and 36.8% and 38.3% and 35.5% and 35.6% and 38.7% | dZiec value (osteoblasts of AIS#1550 (Group 2)): 55.13 and 57.13 and 66.49 and 64.49 and 56.81 and 64.81 | dZiec value (osteoblasts of control CTR#60): 143.28/— and 155.28/— and 173.77/— and 181.77/— and 159.53/— and 167.53/— | dZiec value (osteoblasts of control CTR#61): 144.08/— and 156.08/— and 168.59/— and 176.59/— and 157.34/— and 165.34/— | dZiec value (osteoblasts of control CTR#69): 141.68/— and 153.68/— and 163.73/— and 171.73/— and 153.70/— and 161.70/— | Absolute dZiec, control value of max diff. (maximal control value): 169 | Absolute dZiec, control value of min diff. (minimal control value): 138 | Absolute dZiec, Group 1, max diff. (group value): 34 | Absolute dZiec, Group 1, min diff. (group value): 47 | % of control signal, Group 1, max diff.: 20% | % of control signal, Group 1, min diff.: 34% | Absolute dZiec, Group 2, max diff. (group value): 60 | Absolute dZiec, Group 2, min diff. (group value): 88 | % of control signal, Group 2, max diff.: 36% | % of control signal, Group 2, min diff.: 64% | Absolute dZiec, Group 3, max diff. (group value): 100 | Absolute dZiec, Group 3, min diff. (group value): 123 | % of control signal, Group 3, max diff.: 55% | % of control signal, Group 3, min diff.: 89%
